Results reported in patent publication US4528369A, “20-Dihydro-20-deoxy-23-de(mycinosyloxy)tylosin” (Eli Lilly and Company, priority 1983, dated 1985).
Values after ≈ are worked out from the molar mass of the structure shown. “Also recorded” adds a separate entry of the source. Where two headings read alike, the source gives them in different places.

Key:
[1] = test system: pathogenic bacteria, especially gram-positive bacteria and Mycoplasma species; assay: Inhibition of growth of pathogenic bacteria (in words); format: cell-based
Method: (§1) Tables II and III summarize the minimal inhibitory concentrations (MIC) at which 20-deoxo-DMOT and mycaminosyltylactone (as free bases) inhibit certain organisms. The MIC's in Table II were determined by standard agar-dilutionassays. The MIC's in Table III were obtained using a conventional broth-dilution microtiter test.

[2] = test system: Mycoplasma synoviae; assay: MIC, conventional broth-dilution microtiter test (Table III); format: cell-based; conditions: Mycoplasmopsis synoviae, free base, M. synoviae
Method: as §1

[3] = test system: Mycoplasma gallisepticum; assay: as above; format: cell-based; conditions: Mycoplasmoides gallisepticum, free base, M. gallisepticum
Method: as §1

[4] = test system: Pasteurella multocida 60A; assay: as above; format: cell-based; conditions: free base, P. multocida 60A, avian isolate
Method: as §1

[5] = test system: Pasteurella multocida 17E; assay: as above; format: cell-based; conditions: free base, P. multocida 17E, bovine isolate
Method: as §1

[6] = test system: Mycoplasma hyorhinis; assay: as above; format: cell-based; conditions: free base, M. hyorhinis
Method: as §1

[7] = test system: Pasteurella hemolytica 22C; assay: as above; format: cell-based; conditions: free base, P. hemolytica 22C
Method: as §1

[8] = Solubility; format: physicochemical; conditions: free base
[9] = test system: Shigella sonnei N9; assay: MIC, standard agar-dilution assay (Table II); format: cell-based; conditions: free base
Method: as §1

[10] = test system: Staphylococcus epidermidis EPI1; assay: MIC, standard agar-dilution assay (Table II); format: cell-based; conditions: free base, S. epidermidis EPI1
Method: as §1

[11] = test system: Escherichia coli EC14; assay: MIC, standard agar-dilution assay (Table II); format: cell-based; conditions: free base, E. coli EC14
Method: as §1

[12] = test system: Staphylococcus aureus V41; assay: MIC, standard agar-dilution assay (Table II); format: cell-based; conditions: free base, S. aureus V41
Method: as §1

[13] = test system: Staphylococcus aureus NRRL B313; assay: MIC, standard agar-dilution assay (Table II); format: cell-based
Method: as §1

[14] = test system: Streptococcus pneumoniae Park 1; assay: MIC, standard agar-dilution assay (Table II); format: cell-based; conditions: PARK1, free base, S. pneumoniae Park 1
Method: as §1

[15] = test system: Escherichia coli N10; assay: MIC, standard agar-dilution assay (Table II); format: cell-based; conditions: free base, E. coli N10
Method: as §1

[16] = test system: Haemophilus influenzae 76; assay: MIC, standard agar-dilution assay (Table II); format: cell-based
Method: as §1

[17] = test system: Haemophilus influenzae C.L.; assay: MIC, standard agar-dilution assay (Table II); format: cell-based
Method: as §1

[18] = test system: Klebsiella pneumoniae X26; assay: MIC, standard agar-dilution assay (Table II); format: cell-based
Method: as §1

[19] = test system: Streptococcus pyogenes C203; assay: MIC, standard agar-dilution assay (Table II); format: cell-based
Method: as §1

[20] = test system: Klebsiella pneumoniae KAE; assay: MIC, standard agar-dilution assay (Table II); format: cell-based; conditions: free base, K. pneumoniae KAE
Method: as §1

[21] = test system: Escherichia coli TEM; assay: MIC, standard agar-dilution assay (Table II); format: cell-based
Method: as §1

[22] = test system: Staphylococcus aureus S13E; assay: MIC, standard agar-dilution assay (Table II); format: cell-based
Method: as §1

[23] = test system: Streptococcus faecium ATCC 9790; assay: MIC, standard agar-dilution assay (Table II); format: cell-based; conditions: Enterococcus faecium, ATCC9790
Method: as §1

[24] = test system: Staphylococcus epidermidis EPI2; assay: MIC, standard agar-dilution assay (Table II); format: cell-based; conditions: free base, S. epidermidis EPI2
Method: as §1

[25] = test system: Streptococcus sp. group D 9960; assay: MIC, standard agar-dilution assay (Table II); format: cell-based
Method: as §1

[26] = test system: Staphylococcus aureus X400; assay: MIC, standard agar-dilution assay (Table II); format: cell-based
Method: as §1

| SMILES | antibacterial activity (in words) [1] | MIC [2] [µg/mL] | MIC [3] [µg/mL] | MIC [4] [µg/mL] | MIC [5] [µg/mL] | MIC [6] [µg/mL] | MIC [7] [µg/mL] | MIC [9] [µg/mL] | MIC [10] [µg/mL] | MIC [11] [µg/mL] | MIC [12] [µg/mL] | MIC [14] [µg/mL] | MIC [15] [µg/mL] | MIC [20] [µg/mL] | MIC [21] [µg/mL] | MIC [22] [µg/mL] | MIC [24] [µg/mL] | other results |
| --- | --- | --- | --- | --- | --- | --- | --- | --- | --- | --- | --- | --- | --- | --- | --- | --- | --- | --- |
| CCC1CC(C)C(=O)/C=C/C(C)=C/C(C)C(CC)OC(=O)CC(O)C(C)C1OC1OC(C)C(OC2CC(C)(O)C(O)C(C)O2)C(N(C)C)C1O (stereo not shown) [20-Deoxo-DMOT, 20-dihydro-20-deoxy-23-de(mycinosyloxy)tylosin] | some antibacterial activity; also recorded: inhibit the growth of pathogenic bacteria, especially gram-positive bacteria and Mycoplasma species | 50 (≈ 70.2 µM) | > 50 | > 50 | > 50 | 50 (≈ 70.2 µM) | > 50 | > 128 | 64 (≈ 89.9 µM) | > 128 | 64 (≈ 89.9 µM) | 64 (≈ 89.9 µM) | > 128 | > 128 | > 128 | 64 (≈ 89.9 µM) | 64 (≈ 89.9 µM) | solubility in water [8]: slightly soluble in water; solubility in polar organic solvents ([8]; acetone, methanol, ethanol, chloroform, dimethylformamide and dimethyl sulfoxide): soluble in most polar organic solvents such as acetone, methanol, ethanol, chloroform, dimethylformamide and dimethyl sulfoxide; MIC ([13]; NRRLB313): 128 µg/mL (≈ 180 µM); MIC [16]; 76: > 128 µg/mL; MIC [17]: > 128 µg/mL; MIC ([18]; X26): > 128 µg/mL; MIC ([19]; C203): 128 µg/mL (≈ 180 µM); MIC [23]: > 128 µg/mL; MIC ([25]; Streptococcus): > 128 µg/mL; MIC ([26]; X400): 128 µg/mL (≈ 180 µM) |
| CCC1CC(C)C(=O)/C=C/C(C)=C/C(C)C(CC)OC(=O)CC(O)C(C)C1OC1OC(C)C(O)C(N(C)C)C1O (stereo not shown) [Mycaminosyltylactone, 5-O-mycaminosyltylactone] | inhibit the growth of pathogenic bacteria, especially gram-positive bacteria and Mycoplasma species | 12.5 (≈ 22 µM) | 1.56 (≈ 2.75 µM) | 12.5 (≈ 22 µM) | 12.5 (≈ 22 µM) | 50 (≈ 88.1 µM) | 25 (≈ 44 µM) | > 128 | 8 (≈ 14.1 µM) | > 128 | 16 (≈ 28.2 µM) | 4 (≈ 7.05 µM) | > 128 | > 128 | > 128 | 8 (≈ 14.1 µM) | 16 (≈ 28.2 µM) | MIC ([13]; NRRLB313, free base, agar-dilution, S. aureus NRRL B313, read-out: MIC): 16 µg/mL (≈ 28.2 µM); MIC ([16]; free base, agar-dilution, H. influenzae 76, read-out: MIC): 16 µg/mL (≈ 28.2 µM); MIC ([17]; free base, agar-dilution, H. influenzae C.L., read-out: MIC): 16 µg/mL (≈ 28.2 µM); MIC ([18]; free base, agar-dilution, K. pneumoniae X26, read-out: MIC): 8 µg/mL (≈ 14.1 µM); MIC ([19]; free base, agar-dilution, S. pyogenes C203, read-out: MIC): 32 µg/mL (≈ 56.4 µM); MIC ([23]; free base, agar-dilution, S. faecium ATCC 9790, read-out: MIC): 32 µg/mL (≈ 56.4 µM); MIC ([25]; free base, agar-dilution, Streptococcus sp. group D 9960, read-out: MIC): 32 µg/mL (≈ 56.4 µM); MIC ([26]; free base, agar-dilution, S. aureus X400, read-out: MIC): 32 µg/mL (≈ 56.4 µM) |
